From US20050130961A1, “Muscarinic M1 receptor agonists for pain management” (priority 2003, published 2005)
Where two headings read alike, the source gives them in different places.

Assays:
M(2) muscarinic receptor = target: T1, M(2) muscarinic receptor (Homo sapiens, UniProt P08172); experiment: R-SAT functional receptor assay, M(2); type: cell-based; details: for Emax: read-out: M2 % efficacy
T1 construct: expressed in transfected cells
T1 sequence (P08172 1-466): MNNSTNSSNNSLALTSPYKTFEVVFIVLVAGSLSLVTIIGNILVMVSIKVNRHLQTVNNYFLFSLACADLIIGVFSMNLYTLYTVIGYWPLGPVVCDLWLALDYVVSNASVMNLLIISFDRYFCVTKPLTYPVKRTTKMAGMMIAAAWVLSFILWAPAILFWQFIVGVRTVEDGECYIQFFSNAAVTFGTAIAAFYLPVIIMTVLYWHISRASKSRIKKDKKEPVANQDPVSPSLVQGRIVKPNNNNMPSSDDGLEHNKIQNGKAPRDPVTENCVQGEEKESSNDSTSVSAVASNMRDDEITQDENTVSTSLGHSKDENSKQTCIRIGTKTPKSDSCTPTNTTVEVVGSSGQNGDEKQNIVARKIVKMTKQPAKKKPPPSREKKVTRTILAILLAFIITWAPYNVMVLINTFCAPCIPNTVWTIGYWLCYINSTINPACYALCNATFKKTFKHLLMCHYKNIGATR
Text: (§1) The functional receptor assay, Receptor Selection and Amplification Technology (R-SAT), essentially as disclosed in U.S. Pat. Nos. 5,707,798, 5,912,132, and 5,955,281, which are all hereby incorporated by reference in their entirety, was used to investigate the pharmacological properties of known and novel muscarinic agonists.

tactile allodynia = experiment: CCI/Tactile Allodynia (von Frey hairs); type: in vivo; details: CCI rats; for dose that reversed tactile allodynia: i.p., post-hoc comparison
Procedure: (§2) Rats were anesthetized under aseptic and heated conditions using a combination of 1.6 ml ketamine (100 mg/ml) and 1.6 ml xylazine (100 mg/ml) in 6.8 ml 0.9% saline at a volume of 0.1 ml/100 g. The left quadriceps was shaved and scrubbed thoroughly with an iodine solution. The sciatic nerve was exposed at the level of the sciatic notch distally to the sciatic trifurcation. The nerve was very carefully freed from the underlying muscle and connective tissue without causing trauma to the nerve itself. Using 4-0 chromic catgut suture material, four semi-loose ligatures were tied around the sciatic nerve starting at the most proximal level, next to the sciatic notch, spaced roughly 1 mm apart and ending proximal to the sciatic trifurcation. […] The muscular incision was closed with 4-0 silk suture material and the skin was stapled with wound clips. The animals were closely observed until they recovered completely from the anesthetic. The surgery was the same for the hyperalgesia and allodynia experiments.
The onset and duration of significant mechanical allodynia post CCI surgery is approximately 10-14 days and lasts for roughly two months. Within this allodynic time frame, and for each specific allodynia experiment, pre and post drug administration measurements were taken with seven von Frey hairs which are designated by log (10* force required to bend hair, mg) and ranged from 2-26 grams (#'s 4.31-5.46). Each hair was pressed perpendicularly against the left injured plantar mid-hind paw surface with sufficient force to cause a slight bending, and was held for 6-8 seconds starting with the thinnest gauged hair and working up to the thickest. A positive response was recorded when the injured paw was sharply withdrawn, and this response was confirmed as positive by testing the next thickest gauged hair for the same response. Only when a response was seen twice was the score accepted. If the maximum gram force of 26 was reached without a response, this was considered the peak threshold cutoff for allodynic behavior and the score was recorded. Animals were considered allodynic when the post surgery baseline measurements were 6 grams and below. Two baseline days of measurements were taken with one round of testing occurring per day. On the day of drug testing, one round of baseline measurements were taken, the appropriate pretreatment was administered i.p. and a second round of measurements were recorded. Each animal was utilized in multiple experiments, with one treatment per experiment, and an appropriate washout period in between experiments.

rats = experiment: Muscarinic Side Effects; details: of N tested
acute thermal pain = experiment: Acute Thermal Analgesia (tail withdrawal from 55° C. water); type: in vivo; details: rats; for Acute pain, minimal effective dose: NA = not active at the highest tested dose of 30 mg/kg; for alleviating acute thermal pain, in words / dose active in acute antinociception (tail withdrawal): 55° C. water
Procedure: Water was heated and maintained at 55° C.±1° C. with a probe regulated hot plate. Female rats weighing approximately 200 g -250 g were acclimated days in advance by placing them into and removing them from a plastic rat restrainer. On the day of the experiment each rat was placed in the restrainer 1 minute before the test was performed. Roughly one inch of the tail was submerged into the water as a timer was initiated. Once the tail was completely removed from the water, the timer was stopped and the time was recorded. […] One round of baseline measurements were collected. The test compound was administered and after the appropriate pretreatment interval, the procedure was repeated. Each animal was utilized in multiple experiments, with one treatment per experiment, and an appropriate washout period of at least 48 hours between experiments. The pre-treatment baseline tail withdrawal latency average was 2.281 s±0.25. […] At a dose of 10 mg/kg, morphine [F(3,23)=5.903, p<0.01] was antinociceptive.

thermal hyperalgesia = experiment: CCI/Thermal Hyperalgesia (paw withdrawal latency to radiant heat); type: in vivo; details: CCI rats; for dose that significantly reversed thermal hyperalgesia: post-hoc comparison relative to vehicle
Procedure: as §2
For hyperalgesia testing, rats were placed in a tinted plastic box on top of a clear glass, temperature-regulated floor maintained at 31±1° C. The floor contained a focal radiant heat source (halogen projection lamp CXL/CXP, 50 W, 8 v, USHIO, Tokyo).
To initiate the test, rats were placed in the tinted boxes and allowed 10-20 minutes to acclimate to the new environment. The radiant heat source was then positioned under the plantar surface of the hind paw. Upon activation of the heat source, a timer was simultaneously triggered. Upon reflex movement of the hind paw, a motion sensor was activated stopping the timer and inactivating the heat source. The thermal source was adjusted so that the average response latency for an uninjured animal was no greater than 20 seconds. Each rat had two days of pre-operative baseline latency measurements in which the left rear hind paw plantar surface was measured three to four times. Two to three left postoperative baseline latency measurements were taken before and after the treatment was given. Postoperative day 2 and 4 measurements yielded the greatest degree of hyperalgesia and thus were utilized in this assay. Each animal was tested twice with at least 48 hours separating each test.
Thermal hyperalgesia developed in the surgical-treated left paw as evidenced by a decrease in paw withdrawal latencies to a thermal stimulus. The maximal hyperalgesia occurred on post-operative days 2 through 4. Paw withdrawal latencies on the surgically-treated left side gradually returned to baseline levels over the course of 5 to 12 days post-surgery.

M(1) muscarinic receptor = target: T2, M(1) muscarinic receptor (Homo sapiens, UniProt P11229); experiment: R-SAT functional receptor assay, M(1); type: cell-based; details: for Emax: read-out: M1 % efficacy
T2 construct: expressed in transfected cells
T2 sequence (P11229 1-460): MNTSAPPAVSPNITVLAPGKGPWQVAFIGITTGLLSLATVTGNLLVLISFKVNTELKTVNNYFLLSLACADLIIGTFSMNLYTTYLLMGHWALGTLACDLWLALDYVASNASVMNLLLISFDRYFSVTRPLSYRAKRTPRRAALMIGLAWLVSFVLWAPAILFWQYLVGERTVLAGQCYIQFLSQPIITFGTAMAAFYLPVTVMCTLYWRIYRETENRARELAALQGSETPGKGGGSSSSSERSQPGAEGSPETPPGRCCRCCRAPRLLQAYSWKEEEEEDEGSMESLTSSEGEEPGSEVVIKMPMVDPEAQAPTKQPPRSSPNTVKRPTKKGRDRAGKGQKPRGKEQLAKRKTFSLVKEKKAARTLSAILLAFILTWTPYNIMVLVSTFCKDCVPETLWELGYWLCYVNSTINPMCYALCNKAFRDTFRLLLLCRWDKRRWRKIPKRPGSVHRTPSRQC
Text: as §1

[1] = R-SAT, read-out: M2 pEC50 (converted)
[2] = R-SAT, read-out: M1 pEC50 (converted)

Structure (SMILES)	agonist character at M(2) receptor, in words (M(2) muscarinic receptor; R-SAT)	Emax (M(2) muscarinic receptor) [%]	Antiallodynic, minimal effective dose (tactile allodynia) [mg/kg]	Acute pain, minimal effective dose (acute thermal pain) [mg/kg]	Antihyperalgesic, minimal effective dose (thermal hyperalgesia) [mg/kg]	agonist character at M(1) receptor, in words (M(1) muscarinic receptor; R-SAT)	Emax (M(1) muscarinic receptor) [%]	EC50 (M(2) muscarinic receptor; [1]) [nM]	dose that reversed tactile allodynia (tactile allodynia) [mg/kg]	alleviating acute thermal pain, in words (acute thermal pain)	dose that significantly reversed thermal hyperalgesia (thermal hyperalgesia) [mg/kg]	EC50 (M(1) muscarinic receptor; [2]) [nM]	Emax (M(2) muscarinic receptor; R-SAT, relative to carbachol) [%]	Emax (M(1) muscarinic receptor; R-SAT, relative to carbachol) [%]	dose active in acute antinociception (tail withdrawal) (acute thermal pain) [mg/kg]	also measured
O=C1CCCN1CC#CCN1CCCC1 [Oxotremorine]	potent and efficacious full agonists	104	0.3	0.3	0.3	potent and efficacious full agonists	91									EC50 (M(2) muscarinic receptor): 15.8 nM; Chromodaccyhrea, number of animals exhibiting (rats; 0.1 mg/kg): 0; Diarrhea, number of animals exhibiting (rats; 0.1 mg/kg): 1; Lethargy, number of animals exhibiting (rats; 0.1 mg/kg): 0; Salivation, number of animals exhibiting (rats; 0.1 mg/kg): 0; Tremor, number of animals exhibiting (rats; 0.1 mg/kg): 0; Chromodaccyhrea, number of animals exhibiting (rats; 0.3 mg/kg): 2; Diarrhea, number of animals exhibiting (rats; 0.3 mg/kg): 7; Lethargy, number of animals exhibiting (rats; 0.3 mg/kg): 0; Salivation, number of animals exhibiting (rats; 0.3 mg/kg): 9; Tremor, number of animals exhibiting (rats; 0.3 mg/kg): 0; Chromodaccyhrea, number of animals exhibiting (rats; 1 mg/kg): 8; Diarrhea, number of animals exhibiting (rats; 1 mg/kg): 18; Lethargy, number of animals exhibiting (rats; 1 mg/kg): 18; Salivation, number of animals exhibiting (rats; 1 mg/kg): 16; Tremor, number of animals exhibiting (rats; 1 mg/kg): 6; paw withdrawal latency (thermal hyperalgesia; dose 1 mg/kg): 18.468 ± 1.532 s; EC50 (M(1) muscarinic receptor): 63.1 nM
CCCCC1CCN(CCCN2CCOc3ccc(C)cc32)CC1 [Formula (VIII)]	weak partial agonists	39	30.0		10.0	potent and efficacious M(1) agonist	81	501	30	not active	10	20				
CCCCC1CCN(CCCc2nsc3ccccc23)CC1 [Formula (VII)]	weak partial agonists		10.0		10.0	potent and efficacious M(1) agonist		1260	10	not active	10	79.4	36	85		
CCCCCCOc1nsnc1C1=CCCN(C)C1 [Xanomeline]	potent and efficacious full agonists		10.0	10.0	10.0						10		109		10.0	dose that did not reverse thermal hyperalgesia (thermal hyperalgesia; p>0.05 relative to vehicle): 3 mg/kg
CN1CC[C@]23c4c5ccc(O)c4O[C@H]2[C@@H](O)C=C[C@H]3[C@H]1C5 [Morphine, morphine]															10	anti-allodynia, in words (tactile allodynia): elicited anti-allodynia
CO/N=C/C1=CCCN(C)C1 [Milameline]	potent and efficacious full agonists		0.3	1.0	0.3	potent and efficacious full agonists		631				398	110	90	1.0	
